According to patent publication US8158376B2, “Bisubstrate fluorescent probe binding to protein kinases” (University of Tartu, priority 2006, dated 2012):
Where “and” joins values, the source holds several entries; their conditions need not be identical. Equal values may be shown once. Starred links: 1 amine or outer side, 2 acyl side, 3 side chain; linkers in the order of their positions; H or OH if unused. Non-standard residues stand in square brackets, D forms with d. Residues, ends and D or L forms follow the SMILES beside them. *: point of attachment. Adenosine(5'-uronoyl) = Nc1ncnc2c1ncn2[C@@H]1O[C@H](C(=O)*)[C@@H](O)[C@H]1O; X1 = CN(C)c1ccc2c(-c3ccc(C(=O)*)cc3C(=O)[O-])c3ccc(=[N+](C)C)cc-3oc2c1; Isoquinoline5sulfonyl = O=S(=O)(c1cccc2cnccc12)*; X2 = O=C(CCCCCNCCN[*:1])[*:2]; X3 = CN(CCCCCC(=O)[*:2])[*:1]; 4Amb = NCc1ccc(C(=O)O)cc1; Ahx = NCCCCCC(=O)O; βAla = NCCC(=O)O

Legend:
cAPK Cα [1] = biological target: T1, cAPK Cα (Homo sapiens, UniProt P17612); assay: Inhibition of TAMRA-kemptide phosphorylation catalyzed by cAPK Cα (TLC, fluorescence imaging); assay type: biochemical; design: purchased Biaffin AG
Procedure: (§1) The IC50 values of the inhibitors were measured as previously described. [Viht et al., Anal. Biochem. 340 (2005) 165] The inhibitors in various concentrations were incubated at 30° C. in Hepes buffer (50 mM, pH=7.5) containing cAPK Cα (Biaffin AG; about 1 nM), TAMRA-kemptide (10, 30 or 100 μM), ATP (100 μM or 1 mM), magnesium acetate (10 mM) and bovine serum albumin ([…] 0.2 mg/mL). ATP was added last to initiate the phosphorylation reaction. At fixed time points, the reaction was stopped by 20-fold dilution with 75 mM phosphoric acid and obtained solutions were analyzed by normal phase TLC (without fluorescence indicator, eluted with 1-butanol/pyridine/acetic acid/water, 15/10/12/12 by volume). The visualization and quantification of the fluorescent spots were carried out by fluorescence imaging. Data were processed with Graphpad Prism software (version 4, GraphPad).

cAPK Cα [2] = biological target: T1, cAPK Cα; assay: Titration of ARC-TAMRA with cAPK Cα, fluorescence anisotropy, LS 55 spectrometer 0.5 ml cell; assay type: binding; design: purchased Biaffin AG; conditions: LS 55, 0.5 ml quartz cell, read-out: Kd of ARC-TAMRA complex with cAPK Cα
Procedure: The change in fluorescence anisotropy was plotted against the kinase concentration [cAPK Cα]. The data were fitted to the equation: […]
The binding of the fluorescent probe ARC-TAMRA to the kinase cAPK Cα (Biaffin) was studied at 10 nM or 2 nM ARC-TAMRA concentration (excitation at 557 nm, slitwidth 10 nm; emission at 585 nm, slitwidth 10 nm, detection of fluorescence polarization).
10 nM solution of ARC-TAMRA in 500 μl of buffer (50 mM HEPES, 200 mM NaCl, 0.5 g/l BSA, 5 mM DTT, 0.05% TWEEN 20, MilliQ water; pH 7.4) was titrated with the solution of kinase cAPK Cα (Biaffin). 1-3 μl quantities of various dilutions of kinase solution were added to 500 μl of 2.0 nM or 10.0 nM solution of ARC-TAMRA, and fluorescence anisotropy was measured after each addition of the kinase solution after 10 min delay time. The change in fluorescence anisotropy was plotted against the kinase concentration [cAPK Cα]. The data were fitted to the equation: […]

[3] = biological target: Rho-associated kinase ROCK II (Homo sapiens, UniProt O75116); assay: Titration of ARC-TAMRA with ROCK II, PHERAstar; assay type: binding; conditions: 2 nM and 20 nM ARC-TAMRA, read-out: Kd of ARC-TAMRA-ROCK II complex
Chain of Rho-associated kinase ROCK II (O75116 whole entry): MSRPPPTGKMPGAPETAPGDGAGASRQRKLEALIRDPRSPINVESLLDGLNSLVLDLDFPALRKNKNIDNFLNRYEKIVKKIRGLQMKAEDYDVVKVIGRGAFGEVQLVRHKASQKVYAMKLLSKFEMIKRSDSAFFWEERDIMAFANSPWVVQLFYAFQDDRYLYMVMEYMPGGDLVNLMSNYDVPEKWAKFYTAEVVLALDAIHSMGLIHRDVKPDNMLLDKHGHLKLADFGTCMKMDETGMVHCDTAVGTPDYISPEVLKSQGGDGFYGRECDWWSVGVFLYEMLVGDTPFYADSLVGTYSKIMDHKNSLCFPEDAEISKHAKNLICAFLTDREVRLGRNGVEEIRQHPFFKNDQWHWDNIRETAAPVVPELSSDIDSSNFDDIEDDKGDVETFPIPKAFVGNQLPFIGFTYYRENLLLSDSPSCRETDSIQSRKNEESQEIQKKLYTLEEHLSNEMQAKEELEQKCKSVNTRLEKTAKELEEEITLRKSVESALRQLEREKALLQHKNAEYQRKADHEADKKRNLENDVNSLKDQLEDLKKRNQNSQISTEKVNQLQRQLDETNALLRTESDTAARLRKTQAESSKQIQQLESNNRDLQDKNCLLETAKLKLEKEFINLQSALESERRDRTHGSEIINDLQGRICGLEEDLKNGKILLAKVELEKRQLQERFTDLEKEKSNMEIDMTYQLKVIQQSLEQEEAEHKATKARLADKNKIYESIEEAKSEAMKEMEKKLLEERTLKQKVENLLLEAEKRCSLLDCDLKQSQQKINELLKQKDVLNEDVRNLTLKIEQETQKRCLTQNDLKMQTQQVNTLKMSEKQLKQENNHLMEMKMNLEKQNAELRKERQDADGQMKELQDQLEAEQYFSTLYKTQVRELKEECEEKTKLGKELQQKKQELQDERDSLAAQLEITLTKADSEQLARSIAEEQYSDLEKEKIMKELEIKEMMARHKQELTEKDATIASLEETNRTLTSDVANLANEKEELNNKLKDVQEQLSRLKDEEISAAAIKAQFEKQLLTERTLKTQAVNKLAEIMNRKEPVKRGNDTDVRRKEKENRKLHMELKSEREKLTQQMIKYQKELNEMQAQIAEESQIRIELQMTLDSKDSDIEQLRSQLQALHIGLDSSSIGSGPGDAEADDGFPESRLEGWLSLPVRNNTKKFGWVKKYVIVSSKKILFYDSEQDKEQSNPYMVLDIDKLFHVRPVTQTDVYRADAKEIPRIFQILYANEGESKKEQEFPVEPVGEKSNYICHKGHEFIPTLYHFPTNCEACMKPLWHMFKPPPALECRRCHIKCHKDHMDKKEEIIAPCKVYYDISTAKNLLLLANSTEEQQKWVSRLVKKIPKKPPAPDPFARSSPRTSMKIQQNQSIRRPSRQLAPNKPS
Procedure: Experiments were performed in the wells of 384-well microtiter plates and with the measurements of fluorescence anisotropy with the platereader PHERAStar according to the protocols described in the Example 7.

cAPK Cα [4] = biological target: T1, cAPK Cα; assay: Titration of ARC-TAMRA with cAPK Cα, PHERAstar plate reader, 384-well; assay type: binding; design: purchased Biaffin AG; conditions: 2 nM and 20 nM ARC-TAMRA, 20 μl, 30° C., read-out: Kd of ARC-TAMRA complex with cAPK Cα
Procedure: Titrations of 2 nM and 20 nM ARC-TAMRA solutions were performed with cAPK C[…]. 2-fold serial dilutions of the kinase were used leading to concentrations of the kinase between 100 nM and 0.05 nM and 20 μl reaction volumes on a 384-well microtiter plate. […] Optical conditions for the measurements were set as the following: 540 nm excitation and 590 nm emission (20 nm bandpass filters). To find the value of Kd, titration curves were analyzed by a scientific curve-fitting program, e.g., GraphPad Prism 4.03, with nonlinear regression, using the function below:
[formula] where A is measured anisotropy, Af—anisotropy value for free ARC-Photo, Ab—anisotropy value for bound ARC-Photo, Lt—total concentration of ARC-Photo, Rt—nominal total concentration of enzyme, k—concentration of active enzyme divided by nominal concentration of enzyme, Kd—dissociation constant for ARC-Photo complex with enzyme. […] Determination of the Inhibition Constants (Ki)

cAPK Cα [5] = biological target: T1, cAPK Cα; assay: Inhibition of cAPK Cα-catalysed phosphorylation of TAMRA-kemptide (TLC/fluorescence imaging); assay type: biochemical; design: purchased Biaffin AG; conditions: single site-targeted constituents of the conjugate
Procedure: as §1

cAPK Cα [6] = biological target: T1, cAPK Cα; assay: High-throughput displacement of ARC-TAMRA from cAPK Cα, PHERAstar
Procedure: To determine the inhibition constant (Ki), 3-fold serial dilutions of a given inhibitor are performed analogously as for titration experiments. Before the measurement of fluorescence anisotropies the plate is rotated (400 rpm) for 10 minutes at 30° C.

cAPK Cα [7] = biological target: T1, cAPK Cα; assay: Competition: displacement of ARC-TAMRA from complex with cAPK Cα, fluorescence anisotropy, LS 55; assay type: binding; design: purchased Biaffin AG
Procedure: A complex was created between 10 nM of ARC-TAMRA and 10 nM of cAPK Cα in 0.500 ml of buffer (50 mM HEPES, 200 mM NaCl, 0.5 g/l BSA, 5 mM DTT, 0.05% TWEEN 20, MilliQ water; pH 7.4). Different compounds were screened for binding to cAPK Cα against fixed concentrations of ARC-TAMRA and cAPK Cα (FIG. 4). 1-3 μl quantities of various dilutions of the solution of the inhibitor were added to 500 μl solution of ARC-TAMRA complex with the kinase and fluorescence anisotropy was measured after each addition of the […] after 10 min delay time.

MSK1 = MSK1 (Homo sapiens, UniProt O75582); assay: Kinase selectivity panel, residual activity; assay type: biochemical; conditions: 1 μM compound, 20 μM ATP, 30° C.
Chain of MSK1 (O75582 whole entry): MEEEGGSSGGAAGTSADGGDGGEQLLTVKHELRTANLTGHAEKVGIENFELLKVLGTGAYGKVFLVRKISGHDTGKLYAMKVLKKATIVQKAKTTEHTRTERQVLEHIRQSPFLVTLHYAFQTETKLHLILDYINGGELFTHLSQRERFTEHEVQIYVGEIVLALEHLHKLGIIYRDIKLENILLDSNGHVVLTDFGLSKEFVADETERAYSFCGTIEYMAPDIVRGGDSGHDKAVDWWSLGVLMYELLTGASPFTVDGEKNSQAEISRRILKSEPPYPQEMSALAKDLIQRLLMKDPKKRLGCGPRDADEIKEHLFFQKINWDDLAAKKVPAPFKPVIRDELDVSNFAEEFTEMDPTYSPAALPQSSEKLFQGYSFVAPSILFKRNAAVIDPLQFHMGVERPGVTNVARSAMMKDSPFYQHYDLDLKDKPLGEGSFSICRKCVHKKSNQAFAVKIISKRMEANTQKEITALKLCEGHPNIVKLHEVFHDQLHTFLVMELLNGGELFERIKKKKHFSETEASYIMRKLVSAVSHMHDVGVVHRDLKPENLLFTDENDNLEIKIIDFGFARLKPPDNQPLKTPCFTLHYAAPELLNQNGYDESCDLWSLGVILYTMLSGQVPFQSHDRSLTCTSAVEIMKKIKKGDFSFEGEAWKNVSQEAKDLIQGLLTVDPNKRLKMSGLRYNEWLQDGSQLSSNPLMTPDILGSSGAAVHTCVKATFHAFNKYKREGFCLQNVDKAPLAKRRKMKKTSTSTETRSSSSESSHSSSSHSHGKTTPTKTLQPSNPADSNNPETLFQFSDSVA
Procedure: The assay of protein kinases was performed at 30° C. as described previously [Davies et al., Biochem. J. 351 (2000) 95; Murray et al., Biochem. J. 384 (2004) 477].

PKBb = PKBb (Homo sapiens, UniProt P31751); assay: Kinase selectivity panel, residual activity; assay type: biochemical; conditions: 1 μM compound, 50 μM ATP, 30° C.
Chain of PKBb (P31751 whole entry): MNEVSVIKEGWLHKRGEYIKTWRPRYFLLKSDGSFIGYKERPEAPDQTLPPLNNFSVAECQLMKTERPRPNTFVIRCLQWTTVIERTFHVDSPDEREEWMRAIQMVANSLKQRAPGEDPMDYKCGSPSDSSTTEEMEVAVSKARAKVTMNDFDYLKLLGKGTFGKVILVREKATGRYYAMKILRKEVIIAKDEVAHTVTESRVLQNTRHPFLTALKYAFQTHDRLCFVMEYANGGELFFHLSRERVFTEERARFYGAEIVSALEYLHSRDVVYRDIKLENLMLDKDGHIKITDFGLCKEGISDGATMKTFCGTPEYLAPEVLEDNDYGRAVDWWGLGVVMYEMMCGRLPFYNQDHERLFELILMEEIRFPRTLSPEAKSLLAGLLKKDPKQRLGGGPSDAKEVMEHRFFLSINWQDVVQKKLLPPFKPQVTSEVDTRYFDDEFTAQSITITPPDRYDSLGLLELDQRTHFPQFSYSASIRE
Procedure: (§2) The assay of protein kinases was performed at 30° C. as described previously [Davies et al., Biochem. J. 351 (2000) 95; Murray et al., Biochem. J. 384 (2004) 477]. The results of the testing are expressed as the % of residual activity of the kinase in the presence of the inhibitor at 1 micromolar concentration.

PRK2 = PRK2 (Homo sapiens, UniProt Q16513); assay: Kinase selectivity panel, residual activity; assay type: biochemical
Chain of PRK2 (Q16513 whole entry): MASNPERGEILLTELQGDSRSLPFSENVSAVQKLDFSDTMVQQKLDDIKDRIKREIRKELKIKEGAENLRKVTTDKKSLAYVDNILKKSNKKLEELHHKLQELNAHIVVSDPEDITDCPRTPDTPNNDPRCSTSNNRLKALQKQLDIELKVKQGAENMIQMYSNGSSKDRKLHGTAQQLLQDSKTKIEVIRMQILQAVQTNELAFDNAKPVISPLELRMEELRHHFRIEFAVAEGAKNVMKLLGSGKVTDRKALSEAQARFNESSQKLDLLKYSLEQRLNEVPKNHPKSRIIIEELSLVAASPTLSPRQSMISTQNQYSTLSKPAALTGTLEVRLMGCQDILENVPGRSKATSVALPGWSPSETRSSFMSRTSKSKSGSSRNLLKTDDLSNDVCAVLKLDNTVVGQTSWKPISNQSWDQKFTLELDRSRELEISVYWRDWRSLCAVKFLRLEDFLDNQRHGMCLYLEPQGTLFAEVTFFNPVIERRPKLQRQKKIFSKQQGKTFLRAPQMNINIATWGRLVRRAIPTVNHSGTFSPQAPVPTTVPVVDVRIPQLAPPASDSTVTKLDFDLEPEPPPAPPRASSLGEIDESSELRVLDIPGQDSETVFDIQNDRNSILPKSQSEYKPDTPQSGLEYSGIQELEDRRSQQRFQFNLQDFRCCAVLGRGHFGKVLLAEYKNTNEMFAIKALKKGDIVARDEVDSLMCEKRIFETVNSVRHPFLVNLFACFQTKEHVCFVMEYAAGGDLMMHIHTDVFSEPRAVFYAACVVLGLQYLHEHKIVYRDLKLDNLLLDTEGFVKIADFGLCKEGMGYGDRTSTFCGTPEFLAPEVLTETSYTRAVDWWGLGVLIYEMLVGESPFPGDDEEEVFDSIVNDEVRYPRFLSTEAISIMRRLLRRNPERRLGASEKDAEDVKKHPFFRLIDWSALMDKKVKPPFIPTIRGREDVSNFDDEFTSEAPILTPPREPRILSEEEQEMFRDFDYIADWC
Procedure: as §2

PKBΔph = PKBΔph (Homo sapiens, UniProt P31749); assay: Kinase selectivity panel, residual activity; assay type: biochemical; conditions: 1 μM compound, 5 μM ATP, 30° C.
Chain of PKBΔph (P31749 whole entry, stated change not applied): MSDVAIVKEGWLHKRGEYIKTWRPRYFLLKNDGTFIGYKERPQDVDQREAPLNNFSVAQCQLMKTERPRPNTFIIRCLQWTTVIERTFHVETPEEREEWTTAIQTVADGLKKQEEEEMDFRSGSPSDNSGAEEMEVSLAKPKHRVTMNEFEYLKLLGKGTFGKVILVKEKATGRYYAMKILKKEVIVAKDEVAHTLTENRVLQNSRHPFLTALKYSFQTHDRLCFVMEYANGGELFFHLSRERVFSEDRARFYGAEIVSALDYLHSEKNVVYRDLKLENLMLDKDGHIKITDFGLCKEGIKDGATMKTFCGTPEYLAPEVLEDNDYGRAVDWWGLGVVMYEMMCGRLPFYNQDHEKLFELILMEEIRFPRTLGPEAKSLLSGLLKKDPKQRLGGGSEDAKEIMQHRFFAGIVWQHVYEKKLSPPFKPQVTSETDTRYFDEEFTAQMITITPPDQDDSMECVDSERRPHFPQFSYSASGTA
Procedure: as §2

[8] = 100 μM ATP and 30 μM TAMRA-kemptide, read-out: IC50

Compound: CN(C)c1ccc2c(-c3ccc(C(=O)NCCCC[C@@H](NC(=O)[C@@H](CCCNC(=N)N)NC(=O)[C@@H](CCCNC(=N)N)NC(=O)[C@@H](CCCNC(=N)N)NC(=O)[C@@H](CCCNC(=N)N)NC(=O)[C@@H](CCCNC(=N)N)NC(=O)[C@@H](CCCNC(=N)N)NC(=O)CCCCCNC(=O)[C@H]4O[C@@H](n5cnc6c(N)ncnc65)[C@H](O)[C@@H]4O)C(N)=O)cc3C(=O)[O-])c3ccc(=[N+](C)C)cc-3oc2c1 [ARC-TAMRA, AdcAhx(D-Arg)6-D-Lys(5-TAMRA)-C(O)NH2] ({Adenosine(5'-uronoyl)-Ahx}-[dR][dR][dR][dR][dR][dR][dK](X1)-NH2)
- IC50 (cAPK Cα [1]; read-out: IC50 of inhibition towards cAPK): 0.0062 µM
- Kd (cAPK Cα [2]; 2 nM ARC-TAMRA): 0.0011 µM
- Kd (cAPK Cα [2]; 10 nM ARC-TAMRA): 0.001 µM and 0.00094 µM
- Kd [3]: 0.004 µM
- Kd (cAPK Cα [4]): 0.0004 µM

Compound: Nc1ncnc2c1ncn2[C@@H]1O[C@H](CO)[C@@H](O)[C@H]1O [Ado, adenosine, reference compound]
- IC50 (cAPK Cα [1]; [8]): 350 ± 40 µM

Compound: Nc1ncnc2c1ncn2[C@@H]1O[C@H](CO)[C@@H](O)[C@H]1O [Ado, adenosine]
- inhibitory potency (cAPK Cα [5]): submillimolar

Compound: N=C(N)NCCC[C@H](NC(=O)[C@H](CCCNC(=N)N)NC(=O)[C@H](CCCNC(=N)N)NC(=O)[C@H](CCCNC(=N)N)NC(=O)CCCCCNC(=O)[C@H]1O[C@@H](n2cnc3c(N)ncnc32)[C@H](O)[C@@H]1O)C(N)=O [Compound 2] ({Adenosine(5'-uronoyl)-Ahx}-RRRR-NH2)
- IC50 (cAPK Cα [1]; [8]): 2 ± 0.3 µM

Compound: N=C(N)NCCC[C@H](NC(=O)[C@H](CCCNC(=N)N)NC(=O)[C@H](CCCNC(=N)N)NC(=O)[C@H](CCCNC(=N)N)NC(=O)[C@H](CCCNC(=N)N)NC(=O)[C@H](CCCNC(=N)N)NC(=O)CCCCCNC(=O)[C@H]1O[C@@H](n2cnc3c(N)ncnc32)[C@H](O)[C@@H]1O)C(N)=O [Compound 3, AdcAhx(L-Arg)6-NH2]
- Ki (cAPK Cα [6]): 0.021 µM
- IC50 (cAPK Cα [7]; 10 nM ARC-TAMRA, 10 nM cAPK Cα): 1.3 µM
- Ki (cAPK Cα [7]; read-out: Ki (competitive binding)): 0.11 µM

Compound: N=C(N)NCCC[C@@H](NC(=O)[C@@H](CCCNC(=N)N)NC(=O)[C@@H](CCCNC(=N)N)NC(=O)[C@@H](CCCNC(=N)N)NC(=O)CCCCCNC(=O)[C@H]1O[C@@H](n2cnc3c(N)ncnc32)[C@H](O)[C@@H]1O)C(N)=O [Compound 4] ({Adenosine(5'-uronoyl)-Ahx}-[dR][dR][dR][dR]-NH2)
- IC50 (cAPK Cα [1]; [8]): 0.33 ± 0.03 µM

Compound: CN(CCCCCC(=O)N[C@@H](CCCNC(=N)N)C(=O)N[C@@H](CCCNC(=N)N)C(=O)N[C@@H](CCCNC(=N)N)C(=O)N[C@@H](CCCNC(=N)N)C(N)=O)C(=O)[C@H]1O[C@@H](n2cnc3c(N)ncnc32)[C@H](O)[C@@H]1O [Compound 6] ({Adenosine(5'-uronoyl)}-[X3]RRRR-NH2)
- IC50 (cAPK Cα [1]; [8]): 2.6 ± 0.6 µM

Compound: N=C(N)NCCC[C@H](NC(=O)[C@H](CCCNC(=N)N)NC(=O)[C@H](CCCNC(=N)N)NC(=O)[C@H](CCCNC(=N)N)NC(=O)c1ccc(CNC(=O)[C@H]2O[C@@H](n3cnc4c(N)ncnc43)[C@H](O)[C@@H]2O)cc1)C(N)=O [Compound 7] ({Adenosine(5'-uronoyl)-4Amb}-RRRR-NH2)
- IC50 (cAPK Cα [1]; [8]): 23 ± 4 µM

Compound: N=C(N)NCCC[C@H](NC(=O)[C@H](CCCNC(=N)N)NC(=O)[C@H](CCCNC(=N)N)NC(=O)[C@H](CCCNC(=N)N)NC(=O)CCNC(=O)[C@H](Cc1ccccc1)NC(=O)[C@H]1O[C@@H](n2cnc3c(N)ncnc32)[C@H](O)[C@@H]1O)C(N)=O [Compound 8] ({Adenosine(5'-uronoyl)}-F[βAla]RRRR-NH2)
- IC50 (cAPK Cα [1]; [8]): 3.7 ± 0.3 µM

Compound: N=C(N)NCCC[C@H](NC(=O)[C@H](CCCNC(=N)N)NC(=O)[C@H](CCCNC(=N)N)NC(=O)[C@H](CCCNC(=N)N)NC(=O)CCCCCNCCNS(=O)(=O)c1cccc2cnccc12)C(N)=O [Compound 25] (Isoquinoline5sulfonyl-[X2]RRRR-NH2)
- IC50 (cAPK Cα [1]; second value in parentheses, condition not stated in table (method: ATP 100 μM or 1 mM), read-out: IC50 (μM), value in parentheses (converted)): 0.22 µM

Compound: N=C(N)NCCC[C@@H](NC(=O)[C@@H](CCCNC(=N)N)NC(=O)[C@@H](CCCNC(=N)N)NC(=O)[C@@H](CCCNC(=N)N)NC(=O)[C@@H](CCCNC(=N)N)NC(=O)[C@@H](CCCNC(=N)N)NC(=O)CCCCCNCCNS(=O)(=O)c1cccc2cnccc12)C(N)=O [Compound 26, H9-(CH2)5C(O)(D-Arg)6-NH2]
- remaining activity at 1 µM (MSK1): ≤ 3%
- remaining activity at 1 µM (PKBb): ≤ 3%
- remaining activity at 1 µM (PRK2): ≤ 3%
- residual activity (PKBΔph): ≤ 3%

Compound: CC(=O)N[C@H](CCCNC(=N)N)C(=O)N[C@H](CCCNC(=N)N)C(=O)N[C@H](CCCNC(=N)N)C(=O)N[C@H](CCCNC(=N)N)C(=O)N[C@H](CCCNC(=N)N)C(=O)N[C@H](CCCNC(=N)N)C(=O)N[C@H](CCCCN)C(N)=O [Compound 27, Ac-(D-Arg)6-D-Lys-NH2] (Ac-[dR][dR][dR][dR][dR][dR][dK]-NH2)
- IC50 (cAPK Cα [1]; [8]): ~3000 µM

Compound: NCCNS(=O)(=O)c1cccc2cnccc12 [Compound H9, 5-isoquinolinesulfonyl ethylenediamine, reference compound]
- IC50 (cAPK Cα [1]; [8]): 3.7 ± 0.3 µM

Compound: RIIa: regulatory subunit of cAMP-dependent protein kinase RIIα, substrate protein-competitive inhibitor
- Ki (cAPK Cα [6]; read-out: Ki (displacement of ARC-TAMRA), 2 nM ARC-TAMRA, 3 nM cAPK Cα, PHERAstar, Kd 0.4 nM used): 0.0005 µM
